Measured values published in article PMC12621184, “Synthesis and Pharmacological Characterization of Nociceptin/Orphanin FQ Dimeric Ligands” (Journal of Medicinal Chemistry, 2025).
Bridge positions count the residues as written; N and C are the ends. Peptide text beside a SMILES is read from it. I, II: the chains in the order shown.

How the values were obtained:
human NOP [1] = biological target: T1, human NOP (Homo sapiens, UniProt P41146); assay: Calcium mobilization assay, CHO cells with NOP receptor and chimeric G protein; assay type: cell-based; parameters: expressed in transfected cells; conditions: for EC50: CHO cells coexpressing human NOP and Gαqi5, Fluo-4, 37 °C, mean (CL95%), N = 5 experiments in duplicate, read-out: Ca^2+ mobilization pEC50 (CL95%) (converted); for Ca^2+ mobilization E max ± sem: CHO cells coexpressing human NOP and Gαqi5, maximum change in percentage over baseline fluorescence, mean ± sem, N = 5 in duplicate
Protocol: Chinese hamster ovary (CHO) cells stably coexpressing the human NOP, μ, or κ opioid receptors and the Gαqi5 protein or the human δ and the GαqG66Di5 protein were used in this assay. , Cells were cultured in DMEM/F-12 (1:1) medium supplemented with 10% FBS, 2 mM L-glutamine, […], 100 IU/mL penicillin, and 100 IU/mL streptomycin. Cells were maintained at 37 °C in a humidified atmosphere with 5% CO2 and were seeded at 50 000 cells/well into 96-well black, clear-bottom plates 24 h before test. Loading for 45 min with a solution consisting of HBSS supplemented with 2.5 mM probenecid, 3 μM Fluo-4 AM, and 0.01% pluronic acid ensures the calcium-sensitive dye (Fluo-4) reaches the needed concentration inside the cell, while the exchange of the solution with 100 μL/well of buffer consisting of HBSS with 20 mM HEPES, 2.5 mM probenecid, and 500 μM Brilliant Black allows for fluorescence background to decrease. Serial dilutions of ligands were prepared in HBSS buffer with 20 mM HEPES and 0.02% bovine serum albumin (BSA) to minimize the ligands’ stickiness to plasticware. The automated microplate reader FlexStation II (Molecular Devices, CA, US) was employed at 37 °C to detect changes in fluorescence intensity. The effects of all compounds were expressed as the maximum change in percentage over the baseline fluorescence measured in samples treated with vehicles.
(§1) Concentration-response curves to agonists were analyzed by a four-parameter logistic nonlinear regression model: Effect = baseline + (E max – baseline)/(1 + 10^((logEC50–log[ligand])slope)). […] Experimental data were expressed as mean ± sem of at least 5 experiments. Potency values were expressed as the mean and CL95%. In vitro E max values were analyzed by one-way ANOVA, while in vivo latency data were evaluated by one-way ANOVA followed by Dunnett’s post hoc test. The proportion of mice losing the righting reflex was compared by Fisher’s exact test performed on raw data. GraphPad Prism 10.0 software was used for all of the analyses. The terminology employed is consistent with the International Union of Basic and Clinical Pharmacology (IUPHAR) recommendations. ,

human NOP [2] = biological target: T1, human NOP; assay: NOP receptor–G protein interaction BRET assay; assay type: biochemical; parameters: expressed in transfected cells; host or cells: membranes of HEK293 cells stably coexpressing NOP-RLuc and Gβ1-RGFP; conditions: N = 5 experiments in duplicate; for EC50: membranes from HEK293 cells coexpressing NOP-RLuc and Gβ1-RGFP, room temperature, mean (CL95%), read-out: NOP–G protein interaction pEC50 (CL95%) (converted)
Protocol: A BRET interaction assay was used, as previously detailed in ref , to study the propensity of ligands to evoke interaction between the NOP receptor and to G protein. Membranes taken from HEK293 cells stably coexpressing the fusoproteins NOP-RLuc and Gβ1-RGFP were used. Such cells were grown in DMEM medium supplemented with 10% FBS, 2 mM L-glutamine, […] G418, […] hygromycin B, 100 IU/mL penicillin, and 100 IU/mL streptomycin in a humidified atmosphere with 5% CO2 at 37 °C. Cell membranes were thawed and resuspended in PBS supplemented with 0.01% BSA before the assay, and an amount of 3 μg of total protein was dispensed in each of the 96 wells together with 2 μM Prolume Purple Coelenterazine. All experiments were carried out at room temperature. Ligands were added, and averaged BRET ratios from 10 min measurements were computed. BRET ratios were computed as counts per second (CPS) obtained on a Victor Nivo (PerkinElmer) with 405 (10) nm and 510 (30) nm bandpass filters. Vehicles’ BRET ratios were derived from light passed through 510 divided by that passed through 405 filters. Vehicles BRET values were subtracted from all computations, and data sets were normalized as a fraction of N/OFQ maximal effects.
as §1

T1 sequence (P41146 whole entry): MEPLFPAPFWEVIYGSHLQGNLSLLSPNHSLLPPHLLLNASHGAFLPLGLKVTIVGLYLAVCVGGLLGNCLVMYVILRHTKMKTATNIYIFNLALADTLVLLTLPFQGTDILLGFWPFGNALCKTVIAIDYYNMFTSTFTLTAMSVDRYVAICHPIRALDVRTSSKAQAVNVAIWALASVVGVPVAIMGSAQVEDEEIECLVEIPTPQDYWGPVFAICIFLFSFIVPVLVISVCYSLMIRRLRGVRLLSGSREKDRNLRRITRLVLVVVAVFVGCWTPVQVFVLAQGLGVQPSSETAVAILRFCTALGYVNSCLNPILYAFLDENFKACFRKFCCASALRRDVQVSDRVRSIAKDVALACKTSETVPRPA

CC(C)C[C@H](NC(=O)[C@H](CCCCN)NC(=O)[C@H](CCCNC(=N)N)NC(=O)[C@H](C)NC(=O)[C@H](CSSC[C@H](NC(=O)[C@H](CCCCN)NC(=O)[C@H](CCCNC(=N)N)NC(=O)[C@H](C)NC(=O)CNC(=O)[C@@H](NC(=O)[C@H](Cc1ccccc1)NC(=O)CNC(=O)CNC(=O)[C@@H](N)Cc1ccccc1)[C@@H](C)O)C(=O)N[C@@H](C)C(=O)N[C@@H](CCCNC(=N)N)C(=O)N[C@@H](CCCCN)C(=O)N[C@@H](CC(C)C)C(=O)N[C@@H](C)C(=O)N[C@@H](CC(N)=O)C(=O)N[C@@H](CCC(N)=O)C(N)=O)NC(=O)[C@H](CCCCN)NC(=O)[C@H](CCCNC(=N)N)NC(=O)[C@H](C)NC(=O)CNC(=O)[C@@H](NC(=O)[C@H](Cc1ccccc1)NC(=O)CNC(=O)CNC(=O)[C@@H](N)Cc1ccccc1)[C@@H](C)O)C(=O)N[C@@H](C)C(=O)N[C@@H](CC(N)=O)C(=O)N[C@@H](CCC(N)=O)C(N)=O [1d, [[Cys^10]N/OFQ-NH2]2] (I: H-FGGFTGARKCARKLANQ-NH2 / II: H-FGGFTGARKCARKLANQ-NH2; disulfide I:10-II:10)
EC50 (human NOP [1]): 1.91 nM | Ca^2+ mobilization E max ± sem (human NOP [1]): 305 ± 42 % over the baseline | EC50 (human NOP [2]): 0.141 nM

CC(C)C[C@H](NC(=O)[C@H](CCCCN)NC(=O)[C@H](CSSC[C@H](NC(=O)[C@H](C)NC(=O)[C@H](CO)NC(=O)[C@H](CCCCN)NC(=O)[C@H](CCCNC(=N)N)NC(=O)[C@H](C)NC(=O)CNC(=O)[C@@H](NC(=O)[C@H](Cc1ccccc1)NC(=O)CNC(=O)CNC(=O)[C@@H](N)Cc1ccccc1)[C@@H](C)O)C(=O)N[C@@H](CCCCN)C(=O)N[C@@H](CC(C)C)C(=O)N[C@@H](C)C(=O)N[C@@H](CC(N)=O)C(=O)N[C@@H](CCC(N)=O)C(N)=O)NC(=O)[C@H](C)NC(=O)[C@H](CO)NC(=O)[C@H](CCCCN)NC(=O)[C@H](CCCNC(=N)N)NC(=O)[C@H](C)NC(=O)CNC(=O)[C@@H](NC(=O)[C@H](Cc1ccccc1)NC(=O)CNC(=O)CNC(=O)[C@@H](N)Cc1ccccc1)[C@@H](C)O)C(=O)N[C@@H](C)C(=O)N[C@@H](CC(N)=O)C(=O)N[C@@H](CCC(N)=O)C(N)=O [1f, [[Cys^12]N/OFQ-NH2]2] (I: H-FGGFTGARKSACKLANQ-NH2 / II: H-FGGFTGARKSACKLANQ-NH2; disulfide I:12-II:12)
EC50 (human NOP [1]): 3.02 nM | Ca^2+ mobilization E max ± sem (human NOP [1]): 346 ± 19 % over the baseline | NOP–G protein interaction E max ± sem (human NOP [2]; effects normalized to N/OFQ-NH2 (E max = 1), mean ± sem): 1.07 ± 0.12 | EC50 (human NOP [2]): 1.26 nM

CC(C)C[C@H](NC(=O)[C@H](CSSC[C@H](NC(=O)[C@H](CCCNC(=N)N)NC(=O)[C@H](C)NC(=O)[C@H](CO)NC(=O)[C@H](CCCCN)NC(=O)[C@H](CCCNC(=N)N)NC(=O)[C@H](C)NC(=O)CNC(=O)[C@@H](NC(=O)[C@H](Cc1ccccc1)NC(=O)CNC(=O)CNC(=O)[C@@H](N)Cc1ccccc1)[C@@H](C)O)C(=O)N[C@@H](CC(C)C)C(=O)N[C@@H](C)C(=O)N[C@@H](CC(N)=O)C(=O)N[C@@H](CCC(N)=O)C(N)=O)NC(=O)[C@H](CCCNC(=N)N)NC(=O)[C@H](C)NC(=O)[C@H](CO)NC(=O)[C@H](CCCCN)NC(=O)[C@H](CCCNC(=N)N)NC(=O)[C@H](C)NC(=O)CNC(=O)[C@@H](NC(=O)[C@H](Cc1ccccc1)NC(=O)CNC(=O)CNC(=O)[C@@H](N)Cc1ccccc1)[C@@H](C)O)C(=O)N[C@@H](C)C(=O)N[C@@H](CC(N)=O)C(=O)N[C@@H](CCC(N)=O)C(N)=O [1g, [[Cys^13]N/OFQ-NH2]2] (I: H-FGGFTGARKSARCLANQ-NH2 / II: H-FGGFTGARKSARCLANQ-NH2; disulfide I:13-II:13)
EC50 (human NOP [1]): 1.62 nM | Ca^2+ mobilization E max ± sem (human NOP [1]): 247 ± 39 % over the baseline | EC50 (human NOP [2]): 0.302 nM
